Experimental data from article PMC4459817, “Vasculotide reduces endothelial permeability and tumor cell extravasation in the absence of binding to or agonistic activation of Tie2” (EMBO Molecular Medicine, 2015).
“Also recorded” adds a separate entry of the source.

Assays:
[1] = test system: human microvascular ECs of dermal blood vessel origin (HMVEC-DBl); test: modified Boyden chamber, thrombin-stimulated FITC-dextran permeability, HMVEC-DBl; type: cell-based; details: HMVEC-DBl; structural control alone; Fig1D
Procedure: ECs were first treated with Vasculotide (VT), PBS (vehicle/negative control), Ang1 (positive control), PEG-Cys (polyethylene glycol backbone), T7c (non-PEGylated CHHHRHSF peptides), or VT in the presence of 100-fold molar excess of T7c. The concentrations used, 10–20 ng/mL VT and 200–400 ng/mL Ang1, are estimated molar equivalents (0.71–1.43 nM). Thirty minutes later, ECs were stimulated with thrombin, 0.1% BSA (vehicle/negative control), or EDTA (positive control). Another 30mins later, the amount of FITC-dextran diffusion into the lower chambers (A, D) provides a measure of endothelial permeability. CMTPX-labeled tumor cells (TCs) were then dispensed into inserts, and the amount of TC fluorescence emitting from the underside of insert membranes after 20 h (B–C) or 28 h (E) reflects the efficiency of trans-endothelial TC migration. Representative fluorescent images (10×) of membrane undersides are shown in (C), where DAPI-stained nuclei of ECs/TCs are shown in blue, ‘extravasated’ CMTPX-labeled TCs are shown in red, and the # of CMTPX^+ pixels are shown numerically in red. Means ± SEM are shown (A,B,D,E). Three experiments (twice with HMVEC-LBl and once with HMVEC-DBl) were run with n = 3–5 inserts (independent biological replicates) per group and analyzed by two-sampled unpaired t-tests. […]
Endothelial cells (ECs) were grown on cell culture inserts with uncoated 8-μm-pore PET filter membranes to 100% confluency. […] After 30 min of thrombin stimulation or 4–6 h of TC-CM stimulation, FITC fluorescence (ex/em = 490/520 nm) was measured from a 50 μl sample of the lower chamber media. […] CMPTX fluorescence from migrated TCs was then quantified from 10× microscopy images using a MATLAB (MathWorks, Natick, MA, USA) script; five images (technical replicates) were analyzed per insert. […]

[2] = molecular target: T1, mouse Tie2-Fc (mTie2-Fc) (Mus musculus, UniProt Q02858); test: SPR binding to mouse Tie2-Fc; details: mouse Tie2-Fc (low- and high-density), 37°C, pH 7.4, Supplementary Fig S3
T1 construct: Purified human or mouse Tie2-Fc (i.e., Fc-conjugated extracellular domains of Tie2); purchased R&D Systems 762-T2-100
T1 sequence (Q02858 23-746 limits assumed): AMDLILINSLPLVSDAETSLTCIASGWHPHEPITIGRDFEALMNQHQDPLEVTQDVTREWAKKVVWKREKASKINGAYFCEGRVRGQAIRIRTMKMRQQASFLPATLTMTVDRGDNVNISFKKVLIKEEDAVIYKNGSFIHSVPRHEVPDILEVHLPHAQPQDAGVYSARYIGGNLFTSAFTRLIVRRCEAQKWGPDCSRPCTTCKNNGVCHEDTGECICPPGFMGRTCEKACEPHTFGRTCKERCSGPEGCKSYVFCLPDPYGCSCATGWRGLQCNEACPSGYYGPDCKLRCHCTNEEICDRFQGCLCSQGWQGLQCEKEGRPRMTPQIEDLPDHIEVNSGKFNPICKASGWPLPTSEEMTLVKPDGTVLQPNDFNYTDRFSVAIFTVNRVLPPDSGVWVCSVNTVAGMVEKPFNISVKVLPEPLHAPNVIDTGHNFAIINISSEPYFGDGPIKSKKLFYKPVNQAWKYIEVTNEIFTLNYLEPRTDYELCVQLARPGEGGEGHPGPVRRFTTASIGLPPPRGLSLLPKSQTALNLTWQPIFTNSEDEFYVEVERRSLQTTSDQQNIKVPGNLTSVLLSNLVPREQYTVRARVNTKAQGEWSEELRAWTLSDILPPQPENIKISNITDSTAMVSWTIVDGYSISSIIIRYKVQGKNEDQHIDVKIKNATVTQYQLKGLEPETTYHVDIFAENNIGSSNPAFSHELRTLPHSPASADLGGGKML
Text: To better understand the difficulties we had in observing Tie2 activation by VT, we sought to characterize the binding affinity and kinetics of VT to Tie2. Purified human or mouse Tie2-Fc (i.e., Fc-conjugated extracellular domains of Tie2) were first coupled to protein A sepharose beads for pull-down experiments (Fig9A and B) or immobilized on a Biacore CM5 sensor chip for surface plasmon resonance (SPR) experiments (Fig9C and Supplementary Fig S3). […]
9. Tie2 Receptor-Binding Assays
Vasculotide (VT) was manufactured by Bachem UK Ltd. T7c (CHHHRHSF) was synthesized by Genscript (Piscataway, NJ, USA). PEG-Cys consists of a single cysteine reacted to each of the 4 arms of PEG-maleimide (Sunbright PTE-100MA, NOF Corporation, Tokyo, Japan). BowAng1 (Ang1-Fd-Fc-Fd) was made and provided by Regeneron Pharmaceuticals, Inc. (Tarrytown, NY, USA). COMP-Ang1 was purified in the Kerbel lab from serum-free culture media conditioned by an engineered CHO cell line provided by Dr. Gou Young Koh (KAIST), according to published protocols (Hwang et al, 2008).
Recombinant human Angiopoietin-1 (rhAng1) and Vascular Endothelial Growth Factor ( rhVEGF) were […]
purchased from R&D Systems. […]
(structural/molecular weight control for VT), and 40 μL of supernatant (7% of residual/unbound ligand) – were similarly boiled in SDS sample buffer. […]
Binding analysis were performed by exposure of immobilized mTie2-Fc to the analytes diluted in HBS-EP (0.01M HEPES pH 7.4, 0.15M NaCl, 3mM EDTA, 0.005% v/v Tween-20), which was supplemented with 1mg/mL carboxymethyl dextran (NSB reducer, GE Healthcare) to reduce non-specific binding to the sensor chip. […] To quantitatively determine the kinetic properties of the interaction (KD, kd, ka) and avoid mass transport limitations, mTie2-Fc and hTie2-Fc were immobilized at low density (1,000-1,200RU) onto separate flow cells of the CM5 chip using amine coupling chemistry. […] All data were analysed using BIA Evaluation Software 2.0 (GE Healthcare) to calculate kd, ka and KD using the 1:1 ligand binding model. […]

In the case of “CHHHRHSF [T7c, non-PEGylated CHHHRHSF peptides, reference compound]”, the “trans-endothelial permeability, structural components of VT” value [1] is reported as “partial effects” and the “binding to Tie2-Fc” value [2] is reported as “no binding to Tie2-Fc was detectable; also recorded: undetectable binding”.
